Earlier results on 1 molecule are cited in US20060018956A1, “Dermal application system for aminolevulinic acid-derivatives” (priority 2002, published 2006).

The conditions of this series: fresh ALA solution, approximate physiological value of 8, after just two weeks.

Take `NCC(=O)CCC(=O)O` [ALA, 5-aminolaevulinic acid]: the undecomposed active substance entry is reported as “approx. 10%”.
